# Columns and labels:
# [1] = In vitro ROS scavenging assay (SIN-1, esterase, DCFH-DA); details: 40 µM, SIN-1-generated ROS
# Protocol: DCFH-DA, esterase, and SIN-1 were used to measure the scavenging activity of in vitro ROS generated by SIN-1. DCFH-DA reacts with esterase to generate DCFH, which in turn, reacts with the in vitro ROS generated by SIN-1 to produce DCF. To evaluate the in vitro ROS scavenging effects of the (Z)-BPT derivatives, a concentration of 40 µM was used. […] Three derivatives, 2, 3, and 14, exerted strong scavenging abilities against both intracellular ROS and in vitro ROS.
# The ROS scavenging abilities of (Z)-BPT derivatives 1–14 and Trolox were assessed in accordance with methods previously reported by Lebel and Bondy. Briefly, 50 mM phosphate buffer (pH 7.4) was dissolved with esterase (6 units/mL) and 1.25 mM DCFH-DA (2′,7′-dichlorodihydrofluorescein diacetate) from Molecular Probes (Eugene, OR, USA), maintained at 37 °C for 30 min, and kept on ice in the dark until use. […] Using a microplate reader (Berthold Advances GmbH & Co., Bad Wildbad, Germany), the fluorescence intensities of 2′,7′-dichlorofluorescein (DCF or oxidized DCFH) were examined at excitation and emission wavelengths of 485 nm and 535 nm, respectively. […]
# Figure 11 The scavenging effects of (Z)-BPT derivatives 1–14 on (A) intracellular ROS and (B) in vitro ROS. ROS levels were assessed using an assay with SIN-1 (an ROS generator) and DCFH-DA (an ROS-sensitive fluorescence probe). […]
# [2] = ABTS cation radical scavenging assay; details: 100 µM, 2 min in the dark
# From the text: In addition, it has been reported that antioxidants that scavenge radicals may inhibit excess melanogenesis, because melanogenesis can be triggered by various radicals. Therefore, the 2,2′-azino-bis(3-ethylbenzothiazoline-6-sulfonic acid) (ABTS) cation radical scavenging abilities of 14 (Z)-BPT derivatives were studied using Trolox as a positive control. The ABTS cation radical is formed by transferring one electron of ABTS to K2S2O8 (potassium persulfate). To obtain an ABTS cation radical solution, a 7.4 mM ABTS solution was mixed with 2.6 mM potassium persulfate and kept in the dark at room temperature for 24 h. After adjusting the absorbance of the ABTS cation radical solution to 0.700 ± 0.03 at 732 nm, the ABTS cation radical solution was mixed with test samples (1–14 and Trolox) to a final concentration of 100 µM and kept for 2 min in the dark. The radical scavenging effects were assessed based on the absorbance measured at 732 nm.
# The antioxidant properties of (Z)-BPT derivatives 1–14 were assessed using the ABTS cation-free radical scavenging assay, as previously described. […] Then, methanol was used to dilute the ABTS cation-free radical solution to an absorbance of 0.70 ± 0.02 at 734 nm. […] The absorbance of each well was measured at 734 nm using a VersaMax ™ microplate reader (Molecular Devices, Sunnyvale, CA, USA). […]
compound,measurement,setting,value
Cc1c(C)c2c(c(C)c1O)CCC(C)(C(=O)O)O2 (centres unmarked) [Trolox],in vitro ROS scavenging activity,[1],significantly decreased the enhanced ROS levels
same,ABTS cation radical scavenging (inhibition),[2],81%

# — PMC10144242, “Design, Synthesis, In Vitro, and In Silico Insights of 5-(Substituted benzylidene)-2-phenylthiazol-4(5H)-one Derivatives: A Novel Class of Anti-Melanogenic Compounds” (Molecules, 2023)
